These results are taken from patent publication US20250152585A1, “PHARMACEUTICAL COMPOUND” (Duke Street Bio Limited, priority 2022, published 2025).

T2 sequence (P09874 whole entry): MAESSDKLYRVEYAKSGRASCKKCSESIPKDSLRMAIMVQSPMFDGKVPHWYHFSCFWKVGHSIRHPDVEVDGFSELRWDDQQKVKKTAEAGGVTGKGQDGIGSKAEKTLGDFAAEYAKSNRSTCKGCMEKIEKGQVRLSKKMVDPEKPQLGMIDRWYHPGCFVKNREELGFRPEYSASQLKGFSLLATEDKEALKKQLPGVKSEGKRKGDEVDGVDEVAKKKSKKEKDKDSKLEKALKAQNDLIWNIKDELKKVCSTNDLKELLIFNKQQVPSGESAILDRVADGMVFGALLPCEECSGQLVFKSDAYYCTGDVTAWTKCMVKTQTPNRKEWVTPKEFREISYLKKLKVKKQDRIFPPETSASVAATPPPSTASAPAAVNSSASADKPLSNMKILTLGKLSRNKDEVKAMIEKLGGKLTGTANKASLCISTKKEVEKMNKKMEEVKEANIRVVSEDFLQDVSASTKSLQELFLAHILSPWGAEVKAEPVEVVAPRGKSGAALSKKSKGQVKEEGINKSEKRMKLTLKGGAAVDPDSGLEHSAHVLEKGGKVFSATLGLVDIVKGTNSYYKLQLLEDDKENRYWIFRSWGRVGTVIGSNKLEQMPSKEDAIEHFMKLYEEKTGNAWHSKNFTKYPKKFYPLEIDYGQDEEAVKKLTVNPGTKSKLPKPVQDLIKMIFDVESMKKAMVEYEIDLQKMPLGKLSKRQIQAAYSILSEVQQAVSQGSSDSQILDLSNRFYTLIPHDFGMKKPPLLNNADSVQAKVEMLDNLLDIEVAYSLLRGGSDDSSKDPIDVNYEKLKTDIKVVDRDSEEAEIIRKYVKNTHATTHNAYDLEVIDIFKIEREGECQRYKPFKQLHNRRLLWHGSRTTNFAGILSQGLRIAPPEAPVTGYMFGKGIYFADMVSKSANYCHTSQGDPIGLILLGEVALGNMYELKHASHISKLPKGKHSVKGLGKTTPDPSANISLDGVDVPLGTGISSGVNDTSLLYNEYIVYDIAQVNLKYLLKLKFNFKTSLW
T1 sequence (Q9UGN5 whole entry, the tested form may be a part): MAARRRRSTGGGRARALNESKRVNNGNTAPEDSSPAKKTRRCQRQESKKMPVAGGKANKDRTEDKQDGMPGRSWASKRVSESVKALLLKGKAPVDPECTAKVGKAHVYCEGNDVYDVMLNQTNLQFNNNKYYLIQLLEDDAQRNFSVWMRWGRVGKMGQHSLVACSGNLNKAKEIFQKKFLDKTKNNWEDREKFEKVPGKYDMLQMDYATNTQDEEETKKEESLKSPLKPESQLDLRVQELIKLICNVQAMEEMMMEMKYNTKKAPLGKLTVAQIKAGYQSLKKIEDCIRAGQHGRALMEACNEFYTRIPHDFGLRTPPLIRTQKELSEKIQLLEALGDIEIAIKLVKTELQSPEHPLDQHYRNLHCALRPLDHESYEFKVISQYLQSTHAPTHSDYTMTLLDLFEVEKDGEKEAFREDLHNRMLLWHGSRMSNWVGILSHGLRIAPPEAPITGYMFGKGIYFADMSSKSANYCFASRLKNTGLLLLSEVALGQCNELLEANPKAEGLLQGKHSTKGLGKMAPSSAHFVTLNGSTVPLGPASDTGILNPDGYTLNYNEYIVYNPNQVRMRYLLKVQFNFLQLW

One experiment has as its target T1, N-terminally FLAG-tagged PARP2 (amino acids 1-583) (Homo sapiens, UniProt Q9UGN5).
T1 construct: N-terminally FLAG-tagged PARP2 (amino acids 1-583)
Kind of experiment: PARP2 probe displacement HTRF assay. Type of experiment: binding. The settings on record: binned Kd, probe displacement HTRF. On the procedure:
Data analysis was performed identical as for PARP1.
On the technique in general: In TR-FRET formats the signal depends on donor and acceptor labels being close together.
Compound `CNC(=O)c1ccc(N2CCC(N3CCC(c4cc5cccc(OC)c5c(=O)[nH]4)C3)CC2)cn1` (single isomer, unassigned) [Compound 249b] returned a Kd of more than 10000 nM.
In the case of `CS(=O)(=O)Nc1ccc(N2CCC(N3CCC(c4nc5ccccc5c(=O)[nH]4)C3)CC2)cc1` (single isomer, unassigned) [Compound 250a], the Kd was 1000 to 10000 nM.
Take `CS(=O)(=O)Nc1ccc(N2CCC(N3CCC(c4nc5ccccc5c(=O)[nH]4)C3)CC2)cc1` (single isomer, unassigned) [Compound 250b]: the Kd lay within 100 to 1000 nM.
On the same count and under the same terms, to `CS(=O)(=O)Nc1ccc(N2CCC(N3CCC(c4cc5ccccc5c(=O)[nH]4)C3)CC2)cc1` (single isomer, unassigned) [Compound 251a] belongs 1000 to 10000 nM; to `CS(=O)(=O)Nc1ccc(N2CCC(N3CCC(c4cc5ccccc5c(=O)[nH]4)C3)CC2)cc1` (single isomer, unassigned) [Compound 251b], 100 to 1000 nM.
Regarding `CS(=O)(=O)Nc1ccc(N2CCC(N3CCC(c4cc5ccccc5c(=O)[nH]4)C3)CC2)cn1` (single isomer, unassigned) [Compound 252a], the Kd was in the range of 1000 to 10000 nM.
Compound `CS(=O)(=O)Nc1ccc(N2CCC(N3CCC(c4cc5ccccc5c(=O)[nH]4)C3)CC2)cn1` (single isomer, unassigned) [Compound 252b] had a Kd of 100 to 1000 nM.
As to `CCCc1ccc(C2CCN(C3CCN(c4ccc(C(=O)NC)nc4)CC3)C2)[nH]c1=O` (single isomer, unassigned) [Compound 261a], the Kd is more than 10000 nM.
Same read-out and setting: to `CCCc1ccc(C2CCN(C3CCN(c4ccc(C(=O)NC)nc4)CC3)C2)[nH]c1=O` (single isomer, unassigned) [Compound 261b] belongs 1000 to 10000 nM; to `CC(=O)Nc1ccc(N2CCC(N3CCC(c4nc5ccccc5c(=O)[nH]4)C3)CC2)cn1` (single isomer, unassigned) [Compound 262a], 1000 to 10000 nM; to `CC(=O)Nc1ccc(N2CCC(N3CCC(c4nc5ccccc5c(=O)[nH]4)C3)CC2)cn1` (single isomer, unassigned) [Compound 262b], 1000 to 10000 nM.
Same read-out and setting: to `CNC(=O)c1ncc(N2CCC(N3CCC(c4cc5ccc(F)cc5c(=O)[nH]4)C3)CC2)c(C)n1` (single isomer, unassigned) [Compound 265a] belongs 1000 to 10000 nM.
On the same count and under the same terms, to `CNC(=O)c1ncc(N2CCC(N3CCC(c4cc5ccc(F)cc5c(=O)[nH]4)C3)CC2)c(C)n1` (single isomer, unassigned) [Compound 265b] belongs 100 to 1000 nM.
Compound `CNC(=O)c1ncc(N2CCC(N3CCC(c4cc5ccc(F)cc5c(=O)[nH]4)C3)CC2)c(C(F)(F)F)n1` (single isomer, unassigned) [Compound 266a] came in with a Kd of 100 to 1000 nM.

Another experiment concerns the target T2, full length N-terminally FLAG-tagged PARP1 (Homo sapiens, UniProt P09874). Kind of experiment: PARP1 probe displacement HTRF assay. The following applies: PARP1 over PARP2, ratio Kd (PARP2)/Kd (PARP1), probe displacement HTRF.
With `CNC(=O)c1ccc(N2CCC(N3CCC(c4cc5cccc(OC)c5c(=O)[nH]4)C3)CC2)cn1` (single isomer, unassigned) [Compound 249b], the Selectivity result is reported as “+ (+ indicates a value of 10 to less than 50)”.
Still for that read-out and setting: to `CS(=O)(=O)Nc1ccc(N2CCC(N3CCC(c4nc5ccccc5c(=O)[nH]4)C3)CC2)cc1` (single isomer, unassigned) [Compound 250a] belongs “− (− indicates a value of less than 10)”.
For the compound `CS(=O)(=O)Nc1ccc(N2CCC(N3CCC(c4nc5ccccc5c(=O)[nH]4)C3)CC2)cc1` (single isomer, unassigned) [Compound 250b], the Selectivity result is given as “+ (+ indicates a value of 10 to less than 50)”.
Turning to `CS(=O)(=O)Nc1ccc(N2CCC(N3CCC(c4cc5ccccc5c(=O)[nH]4)C3)CC2)cc1` (single isomer, unassigned) [Compound 251a], the Selectivity entry is on record as “− (− indicates a value of less than 10)”.
Still for that read-out and setting: to `CS(=O)(=O)Nc1ccc(N2CCC(N3CCC(c4cc5ccccc5c(=O)[nH]4)C3)CC2)cc1` (single isomer, unassigned) [Compound 251b] belongs “+ (+ indicates a value of 10 to less than 50)”.
Same read-out and setting: to `CS(=O)(=O)Nc1ccc(N2CCC(N3CCC(c4cc5ccccc5c(=O)[nH]4)C3)CC2)cn1` (single isomer, unassigned) [Compound 252a] belongs “− (− indicates a value of less than 10)”; to `CS(=O)(=O)Nc1ccc(N2CCC(N3CCC(c4cc5ccccc5c(=O)[nH]4)C3)CC2)cn1` (single isomer, unassigned) [Compound 252b], “+ (+ indicates a value of 10 to less than 50)”.
As to `CCCc1ccc(C2CCN(C3CCN(c4ccc(C(=O)NC)nc4)CC3)C2)[nH]c1=O` (single isomer, unassigned) [Compound 261a], the Selectivity entry was “− (− indicates a value of less than 10)”.
Same read-out and setting: to `CCCc1ccc(C2CCN(C3CCN(c4ccc(C(=O)NC)nc4)CC3)C2)[nH]c1=O` (single isomer, unassigned) [Compound 261b] belongs “+++ (+++ indicate a value of at least 100)”; to `CC(=O)Nc1ccc(N2CCC(N3CCC(c4nc5ccccc5c(=O)[nH]4)C3)CC2)cn1` (single isomer, unassigned) [Compound 262a], “− (− indicates a value of less than 10)”; to `CC(=O)Nc1ccc(N2CCC(N3CCC(c4nc5ccccc5c(=O)[nH]4)C3)CC2)cn1` (single isomer, unassigned) [Compound 262b], “+ (+ indicates a value of 10 to less than 50)”.
For `CNC(=O)c1ncc(N2CCC(N3CCC(c4cc5ccc(F)cc5c(=O)[nH]4)C3)CC2)c(C)n1` (single isomer, unassigned) [Compound 265a], the Selectivity entry is reported as “+++ (+++ indicate a value of at least 100)”.
The same measure, in the same setting: for `CNC(=O)c1ncc(N2CCC(N3CCC(c4cc5ccc(F)cc5c(=O)[nH]4)C3)CC2)c(C)n1` (single isomer, unassigned) [Compound 265b] the value was “+++ (+++ indicate a value of at least 100)”; for `CNC(=O)c1ncc(N2CCC(N3CCC(c4cc5ccc(F)cc5c(=O)[nH]4)C3)CC2)c(C(F)(F)F)n1` (single isomer, unassigned) [Compound 266a], “+++ (+++ indicate a value of at least 100)”.

Staying with this experiment, now noted: read-out: PARP1 HTRF; binned Kd, probe displacement HTRF.
With `CNC(=O)c1ccc(N2CCC(N3CCC(c4cc5cccc(OC)c5c(=O)[nH]4)C3)CC2)cn1` (single isomer, unassigned) [Compound 249b], the Kd is 100 to 1000 nM.
With `CS(=O)(=O)Nc1ccc(N2CCC(N3CCC(c4nc5ccccc5c(=O)[nH]4)C3)CC2)cc1` (single isomer, unassigned) [Compound 250a], the Kd was 100 to 1000 nM.
In the case of `CS(=O)(=O)Nc1ccc(N2CCC(N3CCC(c4nc5ccccc5c(=O)[nH]4)C3)CC2)cc1` (single isomer, unassigned) [Compound 250b], the Kd lay within 10 to 100 nM.
Same read-out and setting: for `CS(=O)(=O)Nc1ccc(N2CCC(N3CCC(c4cc5ccccc5c(=O)[nH]4)C3)CC2)cc1` (single isomer, unassigned) [Compound 251a] the value was 100 to 1000 nM; for `CS(=O)(=O)Nc1ccc(N2CCC(N3CCC(c4cc5ccccc5c(=O)[nH]4)C3)CC2)cc1` (single isomer, unassigned) [Compound 251b], 10 to 100 nM.
The same measure, in the same setting: for `CS(=O)(=O)Nc1ccc(N2CCC(N3CCC(c4cc5ccccc5c(=O)[nH]4)C3)CC2)cn1` (single isomer, unassigned) [Compound 252a] the value was 100 to 1000 nM; for `CS(=O)(=O)Nc1ccc(N2CCC(N3CCC(c4cc5ccccc5c(=O)[nH]4)C3)CC2)cn1` (single isomer, unassigned) [Compound 252b], 10 to 100 nM.
On the same count and under the same terms, for `CCCc1ccc(C2CCN(C3CCN(c4ccc(C(=O)NC)nc4)CC3)C2)[nH]c1=O` (single isomer, unassigned) [Compound 261a] the value was 1000 to 10000 nM.
With `CCCc1ccc(C2CCN(C3CCN(c4ccc(C(=O)NC)nc4)CC3)C2)[nH]c1=O` (single isomer, unassigned) [Compound 261b], the Kd is less than 10 nM.
The same measure, in the same setting: for `CC(=O)Nc1ccc(N2CCC(N3CCC(c4nc5ccccc5c(=O)[nH]4)C3)CC2)cn1` (single isomer, unassigned) [Compound 262a] the value was 1000 to 10000 nM; for `CC(=O)Nc1ccc(N2CCC(N3CCC(c4nc5ccccc5c(=O)[nH]4)C3)CC2)cn1` (single isomer, unassigned) [Compound 262b], 100 to 1000 nM; for `CNC(=O)c1ncc(N2CCC(N3CCC(c4cc5ccc(F)cc5c(=O)[nH]4)C3)CC2)c(C)n1` (single isomer, unassigned) [Compound 265a], less than 10 nM.
`CNC(=O)c1ncc(N2CCC(N3CCC(c4cc5ccc(F)cc5c(=O)[nH]4)C3)CC2)c(C)n1` (single isomer, unassigned) [Compound 265b]: the Kd is less than 10 nM.
The same measure, in the same setting: to `CNC(=O)c1ncc(N2CCC(N3CCC(c4cc5ccc(F)cc5c(=O)[nH]4)C3)CC2)c(C(F)(F)F)n1` (single isomer, unassigned) [Compound 266a] belongs less than 10 nM.

The target of a further experiment is T2, full length N-terminally FLAG-tagged PARP1. Kind of experiment: PARP1 biochemical DELFIA assay (auto-PARylation). The following applies: binned IC50, biochemical auto-PARylation assay. Details: recombinant full length human N-terminally FLAG-tagged PARP1.
Regarding `CNC(=O)c1ccc(N2CCC(N3CCC(c4cc5cccc(OC)c5c(=O)[nH]4)C3)CC2)cn1` (single isomer, unassigned) [Compound 249b], the IC50 – broadly, the concentration needed to halve the response being measured – fell in the range of 100 to 1000 nM.
On to `CS(=O)(=O)Nc1ccc(N2CCC(N3CCC(c4nc5ccccc5c(=O)[nH]4)C3)CC2)cc1` (single isomer, unassigned) [Compound 250a], for which the IC50 was in the range of 100 to 1000 nM.
The same measure, in the same setting: to `CS(=O)(=O)Nc1ccc(N2CCC(N3CCC(c4nc5ccccc5c(=O)[nH]4)C3)CC2)cc1` (single isomer, unassigned) [Compound 250b] belongs 10 to 100 nM; to `CS(=O)(=O)Nc1ccc(N2CCC(N3CCC(c4cc5ccccc5c(=O)[nH]4)C3)CC2)cc1` (single isomer, unassigned) [Compound 251a], 100 to 1000 nM.
The same measure, in the same setting: for `CS(=O)(=O)Nc1ccc(N2CCC(N3CCC(c4cc5ccccc5c(=O)[nH]4)C3)CC2)cc1` (single isomer, unassigned) [Compound 251b] the value was 10 to 100 nM; for `CS(=O)(=O)Nc1ccc(N2CCC(N3CCC(c4cc5ccccc5c(=O)[nH]4)C3)CC2)cn1` (single isomer, unassigned) [Compound 252a], 100 to 1000 nM; for `CS(=O)(=O)Nc1ccc(N2CCC(N3CCC(c4cc5ccccc5c(=O)[nH]4)C3)CC2)cn1` (single isomer, unassigned) [Compound 252b], 10 to 100 nM.
Still for that read-out and setting: for `CCCc1ccc(C2CCN(C3CCN(c4ccc(C(=O)NC)nc4)CC3)C2)[nH]c1=O` (single isomer, unassigned) [Compound 261a] the value was 100 to 1000 nM; for `CCCc1ccc(C2CCN(C3CCN(c4ccc(C(=O)NC)nc4)CC3)C2)[nH]c1=O` (single isomer, unassigned) [Compound 261b], less than 10 nM.
In the case of `CC(=O)Nc1ccc(N2CCC(N3CCC(c4nc5ccccc5c(=O)[nH]4)C3)CC2)cn1` (single isomer, unassigned) [Compound 262a], the IC50 was in the range of 100 to 1000 nM.
Same read-out and setting: for `CC(=O)Nc1ccc(N2CCC(N3CCC(c4nc5ccccc5c(=O)[nH]4)C3)CC2)cn1` (single isomer, unassigned) [Compound 262b] the value was 100 to 1000 nM; for `CNC(=O)c1ncc(N2CCC(N3CCC(c4cc5ccc(F)cc5c(=O)[nH]4)C3)CC2)c(C)n1` (single isomer, unassigned) [Compound 265a], less than 10 nM.
The same measure, in the same setting: for `CNC(=O)c1ncc(N2CCC(N3CCC(c4cc5ccc(F)cc5c(=O)[nH]4)C3)CC2)c(C)n1` (single isomer, unassigned) [Compound 265b] the value was less than 10 nM.
With `CNC(=O)c1ncc(N2CCC(N3CCC(c4cc5ccc(F)cc5c(=O)[nH]4)C3)CC2)c(C(F)(F)F)n1` (single isomer, unassigned) [Compound 266a], the IC50 is less than 10 nM.
